Laboratory results: PubChem BioAssay (NCI)
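Following 48 hours of exposure in 96-well plates, responses at five concentrations were used to interpolate endpoints linearly. Abbreviation: GI50, concentration required for 50% inhibition of growth. TGI denotes the concentration required for complete inhibition of growth.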 *1 amine or outer side, *2 acyl side, *3 side chain or, on linkers, in order; H or OH if unused. Where a SMILES comes first, the peptide text is derived from it. [ ]: non-standard residue; d: D form. The star is where a group is joined. X12 = NCCCCC(N[*:1])C(=O)CN1CCCC1C(=O)[*:2]; Pentadecanoyl = CCCCCCCCCCCCCCC(=O)*

How the values were obtained:
Assay in all cases: NCI-60 cell line screen, 48 h
[1] = system: COLO 205 colon
[2] = system: MDA-N
[3] = system: NCI-H23 lung
[4] = system: SK-MEL-28 melanoma
[5] = system: OVCAR-5 ovarian
[6] = system: HCT-15 colon
[7] = system: M14 melanoma
[8] = system: SNB-19 CNS

For `Cn1c(-c2cccs2)cc(-c2ccsc2)c1-c1ccsc1`, the TGI [1] was > 100 µM, the TGI [2] was > 100 µM and the TGI [3] was > 100 µM. For the same molecule, the TGI [4] was > 100 µM, the TGI [5] was > 100 µM and the TGI [6] was > 100 µM. For the same molecule, the TGI [7] was > 100 µM and the TGI [8] was > 100 µM.

For `CC(=O)c1nc(C#N)c(N)o1`, the TGI [1] was > 100 µM, the TGI [2] was > 100 µM and the TGI [3] was > 100 µM. For the same molecule, the TGI [4] was > 100 µM, the TGI [5] was > 100 µM and the TGI [6] was > 100 µM. For the same molecule, the TGI [7] was > 100 µM and the TGI [8] was > 100 µM.

In the case of `CCCCCCCCCCCCCCC(=O)NC(CCCCN)C(=O)CN1CCCC1C(=O)NCC(=O)NC(Cc1ccccc1)C(=O)N1CCCC1C(=O)NC(CO)C(=O)NC(Cc1ccc(O)cc1)C(=O)NC(CCCCN)C(=O)NC(CC(C)C)C(=O)NC(CCCN=C(N)N)C(=O)N1CCCC1C(=O)NCC(N)=O` (stereo unspecified) (Pentadecanoyl-[X12]GFPSYKLRPG-NH2; configuration not given here), the GI50 [1] is reported as 15.6 µM, the TGI [1] is reported as 33.8 µM and the GI50 [3] is reported as 21.7 µM. It also gave a TGI [3] of 49.6 µM, a GI50 [4] of 25.7 µM and a TGI [4] of 60.6 µM. For the same molecule, the GI50 [5] was 18.7 µM, the TGI [5] was 44.4 µM and the GI50 [7] was 19.2 µM. For the same molecule, the TGI [7] was 39.8 µM, the GI50 [8] was 24.4 µM and the TGI [8] was 50.4 µM.

For `NC(=O)c1nnc2c(F)cccc2c1N`, the TGI [1] was > 100 µM, the TGI [2] was > 100 µM and the TGI [3] was > 100 µM. The TGI [5] was > 100 µM, the TGI [6] was > 100 µM and the TGI [7] was > 100 µM. For the same molecule, the TGI [8] was > 100 µM.

With `O=C(N(C1=CCCC1)N(c1ccccc1)c1ccccc1)C(F)(F)F` the TGI [1] was 40.6 µM, the TGI [2] was 65.8 µM and the TGI [3] was > 100 µM. For the same molecule, the TGI [4] was > 100 µM, the TGI [5] was > 100 µM and the TGI [6] was 51.8 µM. For the same molecule, the TGI [7] was 74.5 µM and the TGI [8] was > 100 µM.

`O=C(Nc1ccccc1C(=O)O)C(=Cc1ccccc1O)NC(=O)c1ccccc1` was tested, and the TGI [1] was > 100 µM, the TGI [3] was > 100 µM and the TGI [4] was > 100 µM. The TGI [5] was > 100 µM, the TGI [6] was > 100 µM and the TGI [7] was > 100 µM. The TGI [8] was > 100 µM.

In the case of `NC(=O)c1ccc(S(=O)(=NS(=O)(=O)c2ccccc2)c2ccc(C(N)=O)cc2)cc1`, the TGI [1] is reported as > 100 µM, the TGI [2] is reported as > 100 µM and the TGI [3] is reported as > 100 µM. For the same molecule, the TGI [4] was > 100 µM, the TGI [5] was > 100 µM and the TGI [6] was > 100 µM. The TGI [7] was > 100 µM and the TGI [8] was > 100 µM.

For `N#Cc1c(NC(=S)Nc2ccccc2)sc2c1CCCC2`, the TGI [1] was > 100 µM, the TGI [2] was > 100 µM and the TGI [3] was > 100 µM. For the same molecule, the TGI [4] was > 100 µM, the TGI [5] was > 100 µM and the TGI [6] was > 100 µM. For the same molecule, the TGI [8] was > 100 µM.

In the case of `Cc1cnc2cc(Cl)ccc2c1SCC(=O)O`, the TGI [2] is reported as > 100 µM, the TGI [3] is reported as > 100 µM and the TGI [4] is reported as > 100 µM. The TGI [5] was > 100 µM, the TGI [6] was > 100 µM and the TGI [7] was > 100 µM. For the same molecule, the TGI [8] was > 100 µM.

In the case of `Cc1cccc(-c2cc(=O)c3cc(C)cnc3[nH]2)c1`, the TGI [1] is reported as 0.382 µM, the TGI [3] is reported as > 35.9 µM and the TGI [4] is reported as > 100 µM. For the same molecule, the TGI [5] was > 100 µM, the TGI [6] was > 26.8 µM and the TGI [7] was > 100 µM.

With `O=c1cc(-c2ccccc2)[nH]c2c(F)ccc(F)c12` the TGI [1] was > 100 µM, the TGI [3] was > 100 µM and the TGI [4] was > 100 µM. The TGI [5] was > 100 µM, the TGI [6] was > 100 µM and the TGI [7] was > 100 µM.

For `COc1cc2c3c4[n+](cc2c(OC)c1OC)CCC4CCC3` (stereo unspecified), the TGI [1] was > 84.7 µM, the TGI [2] was > 100 µM and the TGI [3] was > 100 µM. For the same molecule, the TGI [4] was > 100 µM, the TGI [5] was > 100 µM and the TGI [6] was > 100 µM. The TGI [7] was > 100 µM and the TGI [8] was > 100 µM.

In the case of `Clc1ccc(C2=NNC(c3cccc(Cl)c3)C2)cc1` (stereo unspecified), the TGI [1] is reported as 29.3 µM, the TGI [2] is reported as 59.6 µM and the TGI [3] is reported as > 100 µM. For the same molecule, the TGI [5] was > 100 µM, the TGI [7] was > 100 µM and the TGI [8] was > 100 µM.

With `C/C(=N\Nc1nc2ccccc2n1C)c1ccncn1` the TGI [1] was > 100 µM, the TGI [2] was > 100 µM and the TGI [3] was > 100 µM. The TGI [4] was 0.168 µM, the TGI [5] was > 100 µM and the TGI [6] was > 88.1 µM. For the same molecule, the TGI [7] was 0.44 µM and the TGI [8] was > 100 µM.

Molecule `COc1ccc(Nc2ccnc3cc(Cl)ccc23)cc1CN(CCCl)CCCl` has a GI50 [1] of 1.39 µM, a TGI [1] of 3.56 µM and a GI50 [3] of 1.04 µM. The TGI [3] was 3.26 µM, the GI50 [4] was 3.59 µM and the TGI [4] was 14.9 µM. For the same molecule, the GI50 [5] was 2.84 µM, the TGI [5] was 5.94 µM and the GI50 [6] was 1.85 µM. The TGI [6] was 6.44 µM, the GI50 [7] was 2.14 µM and the TGI [7] was 7.92 µM. It also gave a GI50 [8] of 1.5 µM.

In the case of `O=C1CSC(c2cc3cc(Br)ccc3nc2Cl)N1c1ccc(F)c(Cl)c1` (stereo unspecified), the TGI [1] is reported as > 50 µM, the TGI [2] is reported as > 50 µM and the TGI [3] is reported as > 50 µM. The TGI [4] was > 50 µM, the TGI [5] was > 50 µM and the TGI [6] was > 50 µM. The TGI [7] was > 50 µM and the TGI [8] was > 50 µM.

For `CCCCCC(=O)OCC1(CO)C/C(=C/CC(C(C)C)C(C)C)C(=O)O1` (stereo unspecified), the TGI [1] was > 75 µM, the TGI [2] was > 75 µM and the TGI [3] was > 75 µM. For the same molecule, the TGI [4] was > 75 µM, the TGI [5] was > 75 µM and the TGI [6] was > 75 µM. For the same molecule, the TGI [8] was > 75 µM.

`C/C(=C\c1ccccc1)n1c(=O)cc(C)n1C` was tested, and the TGI [1] was > 100 µM, the TGI [2] was > 100 µM and the TGI [3] was > 100 µM. For the same molecule, the TGI [4] was > 100 µM, the TGI [5] was > 100 µM and the TGI [7] was > 100 µM. The TGI [8] was > 100 µM.

With `[O-][n+]1cc(SCc2ccccc2)ncc1SCc1ccccc1` the TGI [1] was > 10 µM, the TGI [3] was > 10 µM and the TGI [4] was > 10 µM. The TGI [5] was > 10 µM, the TGI [6] was > 10 µM and the TGI [7] was > 10 µM.

With `COc1ccc(Cn2nc(OCc3ccccc3)c3cc([N+](=O)[O-])ccc32)cc1` the TGI [2] was > 100 µM, the TGI [3] was > 100 µM and the TGI [4] was > 100 µM. For the same molecule, the TGI [5] was > 100 µM, the TGI [6] was > 100 µM and the TGI [7] was > 100 µM. The TGI [8] was > 100 µM.

`COc1ccc(-c2nc3ncccn3c2-c2ccc(S(C)(=O)=O)cc2)cc1` was tested, and the TGI [1] was > 100 µM, the TGI [3] was > 100 µM and the TGI [4] was > 100 µM. The TGI [5] was > 100 µM, the TGI [6] was > 100 µM and the TGI [7] was > 100 µM. For the same molecule, the TGI [8] was > 100 µM.

For `COc1nc2ncc([C@@H](O)[C@H](O)CO)nc2c(=O)[nH]1`, the TGI [1] was > 100 µM, the TGI [2] was > 100 µM and the TGI [4] was > 100 µM. For the same molecule, the TGI [5] was > 100 µM, the TGI [6] was > 100 µM and the TGI [7] was > 100 µM. For the same molecule, the TGI [8] was > 100 µM.

`O=C(OCC(OC(=O)c1ccccc1)C1CC(C(O)C2CCCCC2)C(=O)O1)c1ccccc1` (stereo unspecified) was tested, and the TGI [1] was > 100 µM, the TGI [2] was > 100 µM and the TGI [3] was > 100 µM. For the same molecule, the TGI [5] was > 100 µM, the TGI [6] was > 100 µM and the TGI [7] was > 100 µM. The TGI [8] was > 100 µM.

In the case of `O=C(CSCC(=O)N/N=C\c1cccc(Br)c1)N/N=C\c1cccc(Br)c1`, the TGI [1] is reported as > 100 µM, the TGI [3] is reported as 30.1 µM and the TGI [4] is reported as 41.7 µM. For the same molecule, the TGI [5] was 33.6 µM, the TGI [6] was 86.5 µM and the TGI [7] was 49.9 µM. For the same molecule, the TGI [8] was > 100 µM.

With `c1ccc(C2C3=C(CCCC3)Nc3nnnn32)cc1` (stereo unspecified) the TGI [1] was > 100 µM, the TGI [2] was > 100 µM and the TGI [3] was > 100 µM. For the same molecule, the TGI [5] was > 100 µM, the TGI [6] was > 100 µM and the TGI [7] was > 100 µM. For the same molecule, the TGI [8] was > 100 µM.

In the case of `COc1ccc(C2CCc3c(cnc4nc(N)nc(N)c34)C2)cc1` (stereo unspecified), the TGI [1] is reported as > 100 µM, the TGI [2] is reported as > 100 µM and the TGI [4] is reported as > 100 µM. The TGI [5] was > 100 µM, the TGI [6] was > 100 µM and the TGI [7] was > 100 µM. For the same molecule, the TGI [8] was > 100 µM.
